# Measurements as given in ChEMBL document CHEMBL5136977, “Discovery of 1-(5-(1H-benzo[d]imidazole-2-yl)-2,4-dimethyl-1H-pyrrol-3-yl)ethan-1-one derivatives as novel and potent bromodomain and extra-terminal (BET) inhibitors with anticancer efficacy” (Eur J Med Chem, 2022).
# Activity calls are given as the source filed them. The calls are words filed in the database; no cut-off is given here.
# Assays:
# [1] = Metabolic stability in human liver microsomes assessed as intrinsic clearance incubated for 1 hr by LC-MS/MS analysis; type: ADME, Microsome; settings: read-out: CLH
# [2] = Metabolic stability in rat liver microsomes assessed as intrinsic clearance incubated for 1 hr by LC-MS/MS analysis; type: ADME, Microsome; settings: read-out: CLH
# [3] = Metabolic stability in dog liver assessed as intrinsic clearance incubated for 1 hr by LC-MS/MS analysis; type: ADME, tissue-based, Canis lupus familiaris; settings: read-out: CLH
# [4] = AUC (0 to infinity) in Sprague-Dawley rat at 1 mg/kg, iv by LC-MS/MS analysis; type: ADME, organism-based; parameters: time infinity, dose 1 mg/kg, route iv; settings: in vivo
# [5] = Volume of distribution in Sprague-Dawley rat at 1 mg/kg, iv by LC-MS/MS analysis; type: ADME, organism-based; settings: in vivo
# [6] = Clearance in Sprague-Dawley rat at 1 mg/kg, iv by LC-MS/MS analysis; type: ADME, organism-based; settings: in vivo
# [7] = Tmax in Sprague-Dawley rat at 10 mg/kg, po by LC-MS/MS analysis; type: ADME, organism-based; settings: in vivo
# [8] = test system: UACC-62; assay: Antiproliferative activity against human UACC-62 cells assessed as cell growth inhibition measured after 72 hrs by CellTiter-Glo assay; type: functional
# [9] = Induction of cell apoptosis in human MV4-11 cells assessed as early apoptotic cells at 1000 nM incubated for 48 hrs by Annexin V-FITC/Propidium iodide staining based flow cytometry analysis (reference value: 1.42%); type: functional
# [10] = test system: MV4-11; assay: Induction of cell cycle arrest in human MV4-11 cells assessed as downregulation of c-myc expression incubated for 24 hrs by Western blotting analysis; type: functional, cell-based; settings: dose 62.5-250 nM, DDE = dose-dependent effect
# [11] = test system: MV4-11; assay: Induction of cell apoptosis in human MV4-11 cells assessed as upregulation of cleaved PARP level at 62.5 to 250 nM incubated for 24 hrs by Western blotting analysis; type: functional, cell-based; settings: dose 62.5-250 nM
# [12] = test system: MV4-11; assay: Antitumor activity against human MV4-11 cells xenografted BALB/c nude mouse model assessed as tumor growth inhibition at 40 mg/kg, po QD administered for 28 consecutive days; type: functional; settings: MV4-11, 672 h, time 28 day, read-out: TGI
smiles,measurement,setting,value
CC(=O)c1c(C)[nH]c(-c2nc3cc(N4CCN(C)CC4)ccc3[nH]2)c1-c1ccccc1,microsomal CLint,[1],7.03 µL/min/mg
same,microsomal CLint,[2],20.9 µL/min/mg
same,CLint scaled,[3],133 mL/min/kg
same,AUC(0-inf),[4],725 ng·h/mL
same,Vd,[5],3.3 L/kg
same,clearance,[6],24.3 mL/min/kg
same,Tmax,[7],3.33 h
same,GI50,[8],274 nM
same,Activity,[9],39.3%
same,Activity,[10],Dde
same,Activity,[11],Active
same,inhibition in vivo at 40 mg/kg,[12],103%
